Test [1] addresses Mu-type opioid receptor (Rattus norvegicus, UniProt P33535). Briefly: Binding affinity against Opioid receptor mu 1 with [3H]CTOP.
Test [2] deals with Delta-type opioid receptor (Mus musculus, UniProt P32300). Briefly: Inhibitory activity against Mouse vas deferens smooth muscle. The format is functional, tissue-based, Muscle tissue.
Test [3] concerns the target Delta-type opioid receptor (Rattus norvegicus, UniProt P33533). In words: Binding affinity against delta receptor with [3H][p-Cl-Phe4]-DPDPE.
The target in test [4] is Mu-type opioid receptor (Cavia porcellus, UniProt P97266). Briefly: Inhibitory activity against Guinea pig ileum smooth muscle. The format is functional, tissue-based.

Bridge positions count the residues as written; N and C are the ends. Square brackets hold non-standard residues; d marks the D form. Peptide text beside a SMILES is read from it.

Chain of Mu-type opioid receptor (Cavia porcellus, UniProt P97266) (P97266 whole entry): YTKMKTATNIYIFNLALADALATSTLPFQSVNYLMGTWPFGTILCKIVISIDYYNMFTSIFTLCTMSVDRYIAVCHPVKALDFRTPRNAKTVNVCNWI
Chain of Mu-type opioid receptor (Rattus norvegicus, UniProt P33535) (P33535 whole entry): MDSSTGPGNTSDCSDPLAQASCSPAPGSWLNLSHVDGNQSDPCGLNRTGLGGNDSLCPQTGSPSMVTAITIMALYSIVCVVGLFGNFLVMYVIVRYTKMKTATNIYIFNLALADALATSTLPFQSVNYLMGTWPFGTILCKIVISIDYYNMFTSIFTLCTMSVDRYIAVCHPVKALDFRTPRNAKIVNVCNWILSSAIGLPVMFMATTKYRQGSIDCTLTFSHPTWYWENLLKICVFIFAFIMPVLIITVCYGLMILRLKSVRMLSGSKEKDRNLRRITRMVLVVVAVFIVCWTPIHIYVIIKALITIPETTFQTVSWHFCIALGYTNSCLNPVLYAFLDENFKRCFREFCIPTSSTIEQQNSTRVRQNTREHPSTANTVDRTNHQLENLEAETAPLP
Chain of Delta-type opioid receptor (Rattus norvegicus, UniProt P33533) (P33533 whole entry): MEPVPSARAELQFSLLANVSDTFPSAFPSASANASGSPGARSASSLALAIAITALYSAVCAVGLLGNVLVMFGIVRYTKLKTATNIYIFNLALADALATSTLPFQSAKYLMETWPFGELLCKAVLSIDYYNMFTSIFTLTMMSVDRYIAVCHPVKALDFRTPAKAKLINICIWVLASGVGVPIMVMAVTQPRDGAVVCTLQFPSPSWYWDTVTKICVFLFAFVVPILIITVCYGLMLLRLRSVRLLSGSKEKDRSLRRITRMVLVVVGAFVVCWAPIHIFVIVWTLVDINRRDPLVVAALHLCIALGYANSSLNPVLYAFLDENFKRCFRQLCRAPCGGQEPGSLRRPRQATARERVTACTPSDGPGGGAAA
Chain of Delta-type opioid receptor (Mus musculus, UniProt P32300) (P32300 whole entry): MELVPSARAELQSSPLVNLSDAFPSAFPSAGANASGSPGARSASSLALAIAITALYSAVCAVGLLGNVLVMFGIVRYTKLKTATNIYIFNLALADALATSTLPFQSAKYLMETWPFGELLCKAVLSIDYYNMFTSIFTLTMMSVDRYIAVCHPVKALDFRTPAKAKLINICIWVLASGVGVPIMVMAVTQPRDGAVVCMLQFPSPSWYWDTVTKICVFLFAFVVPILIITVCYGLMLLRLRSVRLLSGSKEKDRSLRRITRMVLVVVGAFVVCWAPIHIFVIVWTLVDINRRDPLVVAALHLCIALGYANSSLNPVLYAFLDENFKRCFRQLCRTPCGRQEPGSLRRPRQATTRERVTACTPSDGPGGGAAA

Take `CC(C)[C@H](NC(=O)[C@@H]1CSSC[C@@H](NC(=O)[C@@H](N)Cc2ccc(O)cc2)C(=O)N[C@@H](Cc2ccccc2)C(=O)N[C@@H](CC(=O)O)C(=O)N1)C(=O)NCC(N)=O` (H-Y[dC]FDCVG-NH2; disulfide 2-5): the IC50 (in general, the point on the concentration scale where inhibition reaches its midpoint) was determined as 5.15 nM in test [1], 0.23 nM in test [2], 0.87 nM in test [3] and 2.98 nM in test [4].

On to `CC(NC(=O)[C@@H](N)Cc1ccc(O)cc1)C(=O)N[C@@H](Cc1ccccc1)C(=O)N[C@@H](CC(=O)O)C(=O)N[C@H](C(=O)N[C@H](C(=O)NCC(N)=O)C(C)C)C(C)C` (single isomer, unassigned) [DELTORPHIN C], for which the 50% inhibitory concentration (IC50) in test [1] turned out to be 2140 nM; in test [3], 0.6 nM; in test [4] it was 2.89 nM.

Source of the values: ChEMBL document CHEMBL1152082, “Topographical requirements for delta opioid ligands: The synthesis and biological properties of a cyclic analogue of deltorphin I” (Bioorg Med Chem Lett, 1992).
